Measurements reported in patent US9896441B2 (Lycera Corporation, priority 2014, dated 2018).

Legend:
[1] = biological target: T1, RORγ-LBD (Homo sapiens, UniProt P51449); assay: RORγ-Ligand Binding Domain (LBD) TR-FRET Assay; format: biochemical
T1 construct: made in house; host or cells: SF9 cells (baculovirus); used as diluted lysate
T1 sequence (P51449 269-508 limits assumed): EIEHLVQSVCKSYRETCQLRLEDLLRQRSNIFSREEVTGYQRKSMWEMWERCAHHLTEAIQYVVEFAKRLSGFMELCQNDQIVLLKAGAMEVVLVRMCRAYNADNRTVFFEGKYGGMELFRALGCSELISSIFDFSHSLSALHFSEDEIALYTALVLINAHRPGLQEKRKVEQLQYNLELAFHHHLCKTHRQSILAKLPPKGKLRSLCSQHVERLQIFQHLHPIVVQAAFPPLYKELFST
In short: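 His-tagged RORγ-LBD from SF9 baculovirus lysate, ~3 nM final, in 50 mM Tris pH 7.0, 50 mM KCl, 1 mM EDTA, 0.1 mM DTT, 0.01% BSA. Biotinylated SRC1 LXXLL peptide at 200 nM final with 2 μM ursolic acid; TR-FRET read-out, 1% DMSO final.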

[2] = biological target: T2, Gal4-RORγ-LBD (Homo sapiens, UniProt P51449); assay: Gal4-RORγ Luciferase Reporter Assay in HEK-293T Cells; format: cell-based; conditions: HEK-293 cells
T2 construct: expressed in transfected cells
T2 sequence (P51449 269-508 limits assumed): T1 sequence (P51449 269-508 limits assumed)
In short: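 HEK-293 cells were co-transfected with Gal4-RORγ-LBD and a Gal4-luciferase reporter, then exposed overnight at 37 °C to compounds with […] ursolic acid present (0.2% DMSO). Luminescence was read with One-Glo after 10 min at RT, untreated signal was set as 100, and Max Response was taken as the upper plateau of a 4-parameter logistic fit.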

[3] = luciferase reporter, with ursolic acid
[4] = with 2 μM ursolic acid (RORγ antagonist), highest test concentration 10 μM
[5] = ursolic acid present, luciferase readout

Compound | EC50 ([1]; RORγ-LBD TR-FRET) | EC50 [2, 3] | EC50 [1, 4] | EC50 [2, 5]
CCOc1nn(CC)cc1S(=O)(=O)N1C[C@H](CCC(=O)OC)Oc2ccc(/C=C/c3c(Cl)cccc3C(C)(F)F)cc21 [Example 89FF, methyl (S,E)-3-(6-(2-chloro-6-(1,1-difluoroethyl)styryl)-4-((3-ethoxy-1-ethyl-1H-pyrazol-4-yl)sulfonyl)-3,4-dihydro-2H-benzo[b][1,4]oxazin-2-yl)propanoate] | < 500 nM | 500 to 5000 nM |  | 
CCOc1ncc(C(F)(F)F)cc1S(=O)(=O)N1C[C@H](CCC(=O)O)Oc2ccc(/C=C/c3c(Cl)cccc3C(C)(F)F)cc21 [Example 89FG, (S,E)-3-(6-(2-chloro-6-(1,1-difluoroethyl)styryl)-4-((2-ethoxy-5-(trifluoromethyl)-pyridin-3-yl)sulfonyl)-3,4-dihydro-2H-benzo[b][1,4]-oxazin-2-yl)propanoic acid] | < 500 nM | < 500 nM |  | 
CCOc1ncc(C(F)(F)F)cc1S(=O)(=O)N1C[C@H](CCC(=O)OC)Oc2ccc(/C=C/c3c(Cl)cccc3C(C)(F)F)cc21 [Example 89FH, methyl (S,E)-3-(6-(2-chloro-6-(1,1-difluoroethyl)styryl)-4-((2-ethoxy-5-(trifluoromethyl)-pyridin-3-yl)sulfonyl)-3,4-dihydro-2H-benzo[b][1,4]-oxazin-2-yl)propanoate] | < 500 nM | < 500 nM |  | 
CC(F)(F)c1cccc(Cl)c1/C=C/c1ccc2c(c1)N(S(=O)(=O)c1cc(C(F)(F)F)cnc1OCCO)C[C@H](CCC(=O)O)O2 [Example 89FI, (S,E)-3-(6-(2-chloro-6-(1,1-difluoroethyl)styryl)-4-((2-(2-hydroxyethoxy)-5-(trifluoromethyl)pyridin-3-yl)sulfonyl)-3,4-dihydro-2H-benzo[b][1,4]-oxazin-2-yl)propanoic acid] | < 500 nM | < 500 nM |  | 
O=C(O)CC[C@H]1CN(S(=O)(=O)c2cc(C(F)(F)F)cnc2OCC(O)CO)c2cc(/C=C/c3c(F)cccc3Cl)ccc2O1 (stereo partly drawn) [Example 89FJ, 3-((2S)-6-((E)-2-chloro-6-fluorostyryl)-4-((2-(2,3-dihydroxypropoxy)-5-(trifluoromethyl)pyridin-3-yl)sulfonyl)-3,4-dihydro-2H-benzo[b][1,4]oxazin-2-yl)propanoic acid] | < 500 nM | 500 to 5000 nM |  | 
CC(C)Oc1ncc(C(F)(F)F)cc1S(=O)(=O)N1C[C@H](CCC(=O)O)Oc2ccc(/C=C/c3c(F)cccc3Cl)cc21 [Example 89FK, (S,E)-3-(6-(2-chloro-6-fluorostyryl)-4-((2-isopropoxy-5-(trifluoromethyl)pyridin-3-yl)sulfonyl)-3,4-dihydro-2H-benzo[b][1,4]oxazin-2-yl)propanoic acid] | < 500 nM | > 10000 nM |  | 
C[C@H](O)COc1ncc(C(F)(F)F)cc1S(=O)(=O)N1C[C@H](CCC(=O)O)Oc2ccc(/C=C/c3c(F)cccc3Cl)cc21 [Example 89FM, 3-((S)-6-((E)-2-chloro-6-fluorostyryl)-4-((2-((S)-2-hydroxypropoxy)-5-(trifluoromethyl)pyridin-3-yl)sulfonyl)-3,4-dihydro-2H-benzo[b][1,4]oxazin-2-yl)propanoic acid] | < 500 nM | 500 to 5000 nM |  | 
COC(=O)CC[C@H]1CN(S(=O)(=O)c2cc(C(F)(F)F)cnc2OC[C@H](C)O)c2cc(/C=C/c3c(F)cccc3Cl)ccc2O1 [Example 89FN, methyl 3-((S)-6-((E)-2-chloro-6-fluorostyryl)-4-((2-((S)-2-hydroxypropoxy)-5-(trifluoromethyl)pyridin-3-yl)sulfonyl)-3,4-dihydro-2H-benzo[b][1,4]oxazin-2-yl)propanoate] | < 500 nM | 500 to 5000 nM |  | 
O=C(O)CC[C@H]1CN(S(=O)(=O)c2cc(C3CC3)cnc2OCCO)c2cc(/C=C/c3c(F)cccc3Cl)ccc2O1 [Example 89FO, (S,E)-3-(6-(2-chloro-6-fluorostyryl)-4-((5-cyclopropyl-2-(2-hydroxyethoxy)pyridin-3-yl)sulfonyl)-3,4-dihydro-2H-benzo[b][1,4]oxazin-2-yl)propanoic acid] |  |  | < 500 nM | < 500 nM
COC(=O)CC[C@H]1CN(S(=O)(=O)c2cc(C3CC3)cnc2OCCO)c2cc(/C=C/c3c(F)cccc3Cl)ccc2O1 [Example 89FP, methyl (S,E)-3-(6-(2-chloro-6-fluorostyryl)-4-((5-cyclopropyl-2-(2-hydroxyethoxy)pyridin-3-yl)sulfonyl)-3,4-dihydro-2H-benzo[b][1,4]oxazin-2-yl)propanoate] |  |  | < 500 nM | < 500 nM
O=C(O)CC[C@H]1CN(S(=O)(=O)c2cccc(OC(F)F)c2)c2cc(/C=C/c3ncccn3)ccc2O1 [Example 89G, (S,E)-3-(4-((3-(difluoromethoxy)-phenyl)sulfonyl)-6-(2-(pyrimidin-2-yl)vinyl)-3,4-dihydro-2H-benzo[b][1,4]oxazin-2-yl)propanoic acid] | 500 to 5000 nM | > 10000 nM |  | 
COC(=O)CC[C@H]1CN(S(=O)(=O)c2cccc(OC(F)F)c2)c2cc(/C=C/c3ncccn3)ccc2O1 [Example 89H, (S,E)-methyl 3-(4-((3-(difluoromethoxy)-phenyl)sulfonyl)-6-(2-(pyrimidin-2-yl)vinyl)-3,4-dihydro-2H-benzo[b][1,4]oxazin-2-yl)propanoate] | < 500 nM | > 10000 nM |  | 
CCOc1nn(CC)cc1S(=O)(=O)N1C[C@H](CCC(=O)O)Oc2ccc(/C=C/c3cccnc3)cc21 [Example 89I, (S,E)-3-(4-((3-ethoxy-1-ethyl-1H-pyrazol-4-yl)sulfonyl)-6-(2-(pyridin-3-yl)vinyl)-3,4-dihydro-2H-benzo[b][1,4]oxazin-2-yl)propanoic acid] | > 10000 nM | > 10000 nM |  | 
CCOc1nn(CC)cc1S(=O)(=O)N1C[C@H](CCC(=O)OC)Oc2ccc(/C=C/c3cccnc3)cc21 [Example 89J, (S,E)-methyl 3-(4-((3-ethoxy-1-ethyl-1H-pyrazol-4-yl)sulfonyl)-6-(2-(pyridin-3-yl)vinyl)-3,4-dihydro-2H-benzo[b][1,4]oxazin-2-yl)propanoate] | 500 to 5000 nM | > 10000 nM |  | 
CCOc1nn(CC)cc1S(=O)(=O)N1C[C@H](CCC(=O)O)Oc2ccc(/C=C/c3ccsc3)cc21 [Example 89K, (S,E)-3-(4-((3-ethoxy-1-ethyl-1H-pyrazol-4-yl)sulfonyl)-6-(2-(thiophen-3-yl)vinyl)-3,4-dihydro-2H-benzo[b][1,4]oxazin-2-yl)propanoic acid] | < 500 nM | 500 to 5000 nM |  | 
CCOc1nn(CC)cc1S(=O)(=O)N1C[C@H](CCC(=O)OC)Oc2ccc(/C=C/c3ccsc3)cc21 [Example 89L, (S,E)-methyl 3-(4-((3-ethoxy-1-ethyl-1H-pyrazol-4-yl)sulfonyl)-6-(2-(thiophen-3-yl)vinyl)-3,4-dihydro-2H-benzo[b][1,4]oxazin-2-yl)propanoate] | < 500 nM | 500 to 5000 nM |  | 
CCOc1nn(CC)cc1S(=O)(=O)N1C[C@H](CCC(=O)O)Oc2ccc(/C=C/c3nccnc3Cl)cc21 [Example 89M, (S,E)-3-(6-(2-(3-chloropyrazin-2-yl)vinyl)-4-((3-ethoxy-1-ethyl-1H-pyrazol-4-yl)sulfonyl)-3,4-dihydro-2H-benzo[b][1,4]oxazin-2-yl)propanoic acid] | > 10000 nM | > 10000 nM |  | 
CCOc1nn(CC)cc1S(=O)(=O)N1C[C@H](CCC(=O)OC)Oc2ccc(/C=C/c3nccnc3Cl)cc21 [Example 89N, (S,E)-methyl 3-(6-(2-(3-chloropyrazin-2-yl)vinyl)-4-((3-ethoxy-1-ethyl-1H-pyrazol-4-yl)sulfonyl)-3,4-dihydro-2H-benzo[b][1,4]oxazin-2-yl)propanoate] | 5000 to 10000 nM | > 10000 nM |  | 
CCOc1nn(CC)cc1S(=O)(=O)N1C[C@H](CCC(=O)O)Oc2ccc(/C=C/c3cccs3)cc21 [Example 89O, (S,E)-3-(4-((3-ethoxy-1-ethyl-1H-pyrazol-4-yl)sulfonyl)-6-(2-(thiophen-2-yl)vinyl)-3,4-dihydro-2H-benzo[b][1,4]oxazin-2-yl)propanoic acid] | < 500 nM | > 10000 nM |  | 
CCOc1nn(CC)cc1S(=O)(=O)N1C[C@H](CCC(=O)OC)Oc2ccc(/C=C/c3cccs3)cc21 [Example 89P, (S,E)-methyl 3-(4-((3-ethoxy-1-ethyl-1H-pyrazol-4-yl)sulfonyl)-6-(2-(thiophen-2-yl)vinyl)-3,4-dihydro-2H-benzo[b][1,4]oxazin-2-yl)propanoate] | 500 to 5000 nM | > 10000 nM |  | 
CCOc1nn(CC)cc1S(=O)(=O)N1C[C@H](CCC(=O)O)Oc2ccc(/C=C/c3nccs3)cc21 [Example 89Q, (S,E)-3-(4-((3-ethoxy-1-ethyl-1H-pyrazol-4-yl)sulfonyl)-6-(2-(thiazol-2-yl)vinyl)-3,4-dihydro-2H-benzo[b][1,4]oxazin-2-yl)propanoic acid] | > 10000 nM | > 10000 nM |  | 
CCOc1nn(CC)cc1S(=O)(=O)N1C[C@H](CCC(=O)OC)Oc2ccc(/C=C/c3nccs3)cc21 [Example 89R, (S,E)-methyl 3-(4-((3-ethoxy-1-ethyl-1H-pyrazol-4-yl)sulfonyl)-6-(2-(thiazol-2-yl)vinyl)-3,4-dihydro-2H-benzo[b][1,4]oxazin-2-yl)propanoate] | 5000 to 10000 nM | > 10000 nM |  | 
